Test results published in patent US20230399368A1, “CARRIER PEPTIDE FRAGMENT AND USE THEREOF” (TOAGOSEI CO., LTD., priority 2020, published 2023).
“Also recorded” adds a separate entry of the source. FAM = fluorescent dye FAM

System: HeLa cells
Assay: Evaluation of the cell membrane permeability by flow cytometry (FAM fluorescence) in HeLa cell culture
Type: cell-based, human
Conditions: for MFI (mean fluorescent intensity): 10 μM in culture medium, 0.5% DMSO, 20 hours incubation at 37° C., detector FL2, mean value of triplicate; for introduction of the fluorescent dye (FAM) into the cytoplasm, shift of the flow cytometry histogram on the X-axis (FIG. 1): compared with Example 3 (only FAM) or Example 2
Description: The cell membrane permeability of sample 1 and sample 2 was evaluated using HeLa cells (an established cell line derived from human cervical cancer cells) as the eukaryotic cells.
HeLa cells were cultured on DMEM (Dulbecco's modified Eagle's medium (Cat. No. 043-30085, from FUJIFILM Wako Pure Chemical Corporation)) containing 10% FBS (fetal bovine serum), which is a general culture medium.
The HeLa cells attached to the culture plate were washed with PBS, a 0.25% trypsin/EDTA solution was then added, and incubation was carried out for 3 minutes at 37° C. After this incubation, the aforementioned DMEM containing 10% FBS was added and the trypsin was inactivated, and the cells were then sedimented by carrying out centrifugal separation for 5 minutes at 150×g. The supernatant produced by the centrifugal separation was removed, and the aforementioned DMEM containing 10% FBS was added to the sediment (cell pellet) to prepare a cell suspension containing approximately 1×10^5 cells/mL. The cells were seeded (approximately 2×10^5 cells/well) by the addition of 2 mL of this cell suspension to the wells of a commercial 6-well plate (Iwaki). The cells were attached to the well bottom by culture for 3 hours at 37° C. under the condition of 5% CO2. In order to perform the evaluation of the cell membrane permeability in triplicate, the cells were seeded to three wells for the test of Example 1 and the following procedure was performed on each well.
The 2 mM sample solution 1 was then diluted with the aforementioned DMEM containing 10% FBS to prepare a sample solution 1 in which the sample 1 concentration was 20 μM. After the aforementioned 3-hour culture, 1 mL of the culture supernatant was removed from the well, followed by the addition to the well of 1 mL of the 20 μM sample solution 1 (i.e., the concentration of sample 1 in the culture medium in the well was brought to 10 μM and the DMSO concentration was brought to 0.5%). The cells were incubated for 20 hours at 37° C. under the condition of 5% CO2. After this 20-hour incubation, the culture supernatant was removed from the well and the cells in the well were washed twice with 1 mL PBS. 200 μL of a 0.25% trypsin/EDTA solution was then added to the well and incubation was carried out for 3 minutes at 37° C. After this incubation, the trypsin was inactivated by the addition of 400 μL of the aforementioned DMEM containing 10% FBS to the well, and the cells were subsequently recovered by transferring the cell suspension in the well to a tube. The well was then washed by the further addition of 600 μL PBS to the well. The cells that had remained in the well were recovered to the tube by transferring the PBS in the well to the tube. Centrifugal separation was run on this tube for 5 minutes using conditions of 4° C. and 210×g. After the centrifugal separation, the supernatant was removed, the sediment (cell pellet) was suspended (washed) with 1 mL of PBS, and centrifugal separation was carried out using the same conditions as before. After this procedure had been performed twice, the supernatant was removed to obtain cells (cell pellet) that had been cultured on a sample 1-containing culture medium.
The cell membrane permeability of sample 1 was evaluated using the resulting cells (cell pellet) and a flow cytometer. An On-Chip Flow Cytometer (On-chip Biotechnologies Co., Ltd.) was used for the flow cytometer.
For this analysis, the cell pellet obtained as described above was suspended in 50 μL PBS. To this suspension was added 50 μL of Sample Buffer 2× for use with the indicated flow cytometer to prepare a cell suspension for submission to analysis.
Gating was performed using this flow cytometer based on forward scatter (FSC) and side scatter (SSC); the gating was set for the cell population that was the target of the analysis; and the fluorescent intensity was measured for the cell population within this gating. The analysis was performed so this cell population reached at least 5,000 or more. […]

Substance	MFI (mean fluorescent intensity)	introduction of the fluorescent dye (FAM) into the cytoplasm, shift of the flow cytometry histogram on the X-axis (FIG. 1) (10 μM, 20 hours incubation)	efficiency (cell membrane permeability) compared using the MFI, Example 1 versus Example 2 (10 μM, 20 hours incubation, ratio of MFI of Table 3)
FAM-MAPRGFSCLLLLTSEIDLPVKRRA-COOH ({FAM}-MAPRGFSCLLLLTSEIDLPVKRRA-OH; listed as Homo sapiens) [Example 1]	33.7	more efficiently introduced; also recorded: shifted more to the right on the X-axis than was the histogram for Example 2	approximately twice as high
5(6)-carboxyfluorescein [Example 3, reference compound]	6		
FAM-KKRTLRKNDRKKR-CONH2 ({FAM}-KKRTLRKNDRKKR-NH2) [Example 2, reference compound]	15.5	more efficiently introduced	
